The target in this assay is T1, human MAP4K4 kinase domain (Homo sapiens, UniProt O95819).
T1 construct: 0.5 nM human MAP4K4 kinase domain (Invitrogen); purchased Invitrogen
T1 sequence (O95819 25-289 limits assumed): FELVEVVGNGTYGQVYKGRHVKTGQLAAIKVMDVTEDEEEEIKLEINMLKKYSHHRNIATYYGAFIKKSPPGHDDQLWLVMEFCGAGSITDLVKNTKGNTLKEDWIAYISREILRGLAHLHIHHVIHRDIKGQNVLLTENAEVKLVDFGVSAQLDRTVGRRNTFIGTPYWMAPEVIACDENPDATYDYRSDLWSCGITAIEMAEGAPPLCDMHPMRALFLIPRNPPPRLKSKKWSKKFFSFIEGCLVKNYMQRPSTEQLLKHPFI
Nature of the assay: MAP4K4 kinase activity, CisBio HTRF Transcreener ADP assay. As to conditions: IC50 category; ATP at Km (10 μM), 0.5 nM kinase domain, 2 h; read-out: MAP4K4. Format: biochemical. An excerpt: Compounds of the present invention were screened for their inhibitory activity against MAP4K4, versus selected off-target hits found with early members of this chemical series. MAP4K4 kinase activity was monitored using the CisBio HTRF Transcreener ADP assay, a competitive immunoassay with a reproducible Z′>0.6. In the detection step, endogenous ADP and d2-labeled ADP compete for binding an anti-ADP monoclonal antibody labelled with Eu^3+ cryptate. A ratiometric fluorescent read-out is used at 665 and 620 nm. Reactions were performed in the presence of 1% DMSO with ATP added at Km (10 μM), 0.5 nM human MAP4K4 kinase domain (Invitrogen), 1 μM biotin-myelin basic protein as substrate (Invitrogen), and extension of reaction time to 2 h. Assays were run in Greiner low volume plates with a final reaction volume of 10 μl. The MAP4K4 inhibition data are provided in Table 41 below for selected compounds of the present invention. The data has been categorised based on the IC50 value of the compound as “A”, “B” or “C”. IC50: A≤100 nM; 100 nM<B≤1 μM; 1 μM<C; nd=not determined.
A general note: Time-resolved FRET reads energy transfer from a long-lived donor to a nearby acceptor.
As for `N#Cc1cc(-c2cn(-c3ccccc3)c3nc[nH]c(=O)c23)cnc1N1CC[C@H](O)C1` [Ex-41], the IC50 is not above 100 nM.
As for `O=c1[nH]cnc2c(-c3ccc(NC4CC4)nc3)cn(-c3ccccc3)c12` [Ex-135], the IC50 was more than 1000 nM.
In the case of `COC(COc1ccc(-c2cn(-c3cccnc3)c3nc[nH]c(=O)c23)cc1)CN1CCOCC1` (stereo not shown) [Ex-34] it was not above 100 nM; in that of `O=c1[nH]cnc2c1c(-c1cccnc1)cn2-c1ccccc1` [Ex-5], not above 100 nM.
For the molecule `CC(C)(O)CCOc1ccc(-c2cn(-c3ccncc3)c3nc[nH]c(=O)c23)cc1` [Ex-69], the IC50 is not above 100 nM.
In the case of `Nc1ncccc1-c1cn(-c2ccccc2)c2c(=O)[nH]cnc12` [Ex-126] it was more than 1000 nM; in that of `CC(C)(O)CCNc1ccc(-c2cn(-c3ccccc3)c3nc[nH]c(=O)c23)cn1` [Ex-94, 5-[6-[(3-hydroxy-3-methyl-butyl)amino]-3-pyridyl]-7-phenyl-3H-pyrrolo[2,3-d]pyrimidin-4-one], not above 100 nM; in that of `O=c1[nH]cnc2c1c(-c1ccc(OCCC3(O)CC3)cc1)cn2-c1cccnc1` [Ex-70], not above 100 nM.
The value for `COc1cc(-c2cn(-c3ccccc3)c3nc[nH]c(=O)c23)ccn1` [Ex-17] was not above 100 nM.
In the case of `O=c1[nH]cnc2c(-c3cnn(CCO)c3)cn(-c3ccccc3)c12` [Ex-123] it was 100 to 1000 nM.
For the molecule `O=c1[nH]cnc2c(-c3ccc4[nH]cnc4c3)cn(-c3ccccc3)c12` [Ex-118], the IC50 lay within 100 to 1000 nM.
For `O=c1[nH]cnc2c1c(-c1cn[nH]c1)cn2-c1ccccc1` [Ex-112, 7-Phenyl-5-(1H-pyrazol-4-yl)-3,7-dihydro-pyrrolo[2,3-d]pyrimidin-4-one], the IC50 was not above 100 nM.
With `O=c1[nH]cnc2c1c(-c1cnc(N3CC(CO)C3)nc1)cn2-c1ccccc1` [Ex-51], the IC50 was in the range of 100 to 1000 nM.
With `CC(C)(O)CCOc1ccc(-c2cn(-c3cncc(F)c3)c3nc[nH]c(=O)c23)cc1` [Ex-84], the IC50 fell in the range of 100 to 1000 nM.
On to `O=c1[nH]cnc2c1c(-c1cnc(N3CC(O)C3)nc1)cn2-c1ccccc1` [Ex-50], for which the IC50 is 100 to 1000 nM.
For the molecule `O=c1[nH]cnc2c1c(-c1ccc(OCCCN3CCOCC3)cc1)cn2-c1cccnc1` [Ex-42], the IC50 is not above 100 nM.
As to `CC(C)(N)COc1ccc(-c2cn(-c3cccnc3)c3nc[nH]c(=O)c23)cc1` [Ex-110], the IC50 was 100 to 1000 nM.
In the case of `CN(CCC(C)(C)O)c1ccc(-c2cn(-c3ccccc3)c3nc[nH]c(=O)c23)cn1` [Ex-95] it was not above 100 nM; in that of `Nc1ccc(-c2cn(-c3ccccc3)c3c(=O)[nH]cnc23)cn1` [Ex-138, 7-(6-aminopyridin-3-yl)-5-phenyl-3,5-dihydro-4H-pyrrolo[3,2-d]pyrimidin-4-one], not above 100 nM; in that of `Cn1cc(-c2cn(-c3ccccc3)c3c(=O)[nH]cnc23)cn1` [Ex-120], 100 to 1000 nM.
In the case of `CC(=O)Nc1ccc(-c2cn(-c3ccccc3)c3nc[nH]c(=O)c23)cn1` [Ex-6] it was not above 100 nM; in that of `COc1ccc(-c2cn(-c3ccccc3)c3nc[nH]c(=O)c23)nn1` [Ex-104, 5-(6-Methoxy-pyridazin-3-yl)-7-phenyl-3,7-dihydro-pyrrolo[2,3-d]pyrimidin-4-one], more than 1000 nM; in that of `CC(C)(O)CCOc1ccc(-c2cn(-c3ccc(N)nc3)c3nc[nH]c(=O)c23)cc1` [Ex-96, 7-(6-aminopyridin-3-yl)-5-(4-(3-hydroxy-3-methylbutoxy)phenyl)-3,7-dihydro-4H-pyrrolo[2,3-d]pyrimidin-4-one], not above 100 nM.
`COCCNc1ccc(-c2cn(-c3ccncc3)c3nc[nH]c(=O)c23)cn1` [Ex-14]: the IC50 was not above 100 nM.
In the case of `CNc1ccc(-c2cn(-c3ccccc3)c3c(=O)[nH]cnc23)cn1` [Ex-134] it was more than 1000 nM; in that of `O=C(C1CC1)N1CC(n2cc(-c3cn(-c4cccnc4)c4nc[nH]c(=O)c34)cn2)C1` [Ex-36], 100 to 1000 nM.
In the case of `Nc1ccc(-c2cn(-c3ccccc3)c3nc[nH]c(=O)c23)cn1` [Ex-9] it was not above 100 nM.
Turning to `O=c1[nH]cnc2c1c(-c1ccncc1F)cn2-c1ccccc1` [Ex-61], the IC50 is 100 to 1000 nM.
The value for `O=c1[nH]cnc2c1c(-c1cnn(C3CNC3)c1)cn2-c1ccccc1` [Ex-108, 5-(1-Azetidin-3-yl-1H-pyrazol-4-yl)-7-phenyl-3,7-dihydro-pyrrolo[2,3-d]pyrimidin-4-one] was 100 to 1000 nM; that for `O=c1[nH]cnc2c1c(-c1ccn[nH]1)cn2-c1ccccc1` [Ex-57] was 100 to 1000 nM.
Turning to `COc1cc(-n2cc(-c3ccc(OCCC(C)(C)O)cc3)c3c(=O)[nH]cnc32)ccn1` [Ex-83], the IC50 lay within 100 to 1000 nM.
In the case of `Cc1cc(-n2cc(-c3ccc(OCCC(C)(C)O)cc3)c3c(=O)[nH]cnc32)ccn1` [Ex-82] it was 100 to 1000 nM; in that of `CC(C)(O)COc1ccc(-c2cn(-c3ccncc3)c3nc[nH]c(=O)c23)cc1` [Ex-68, 5-(4-(2-hydroxy-2methylpropoxy)phenyl)-7-(pyridine-4-yl)-3,7-dihydro-4H-pyrrolo[2,3-d]pyrimidin-4-one], not above 100 nM.
Regarding `O=C(C1CC1)N1CC(n2cc(-c3cn(-c4cccc(F)c4)c4nc[nH]c(=O)c34)cn2)C1` [Ex-15], the IC50 was not above 100 nM.
The value for `CC(C)(O)CCOc1ccc(-n2cc(-c3cccnc3)c3nc[nH]c(=O)c32)cc1` [Ex-125, 5-(4-(3-hydroxy-3-methylbutoxy)phenyl)-7-(pyridin-3-yl)-3,5-dihydro-4H-pyrrolo[3,2-d]pyrimidin-4-one] was not above 100 nM; that for `COCCNc1ncc(-c2cn(-c3cccc(F)c3)c3nc[nH]c(=O)c23)cn1` [Ex-31] was not above 100 nM; that for `O=c1[nH]cnc2c1c(-c1ccc(O[C@@H]3CO[C@@H]4[C@H]3OC[C@@H]4O)cc1)cn2-c1cccnc1` [Ex-80] was not above 100 nM.
In the case of `CC(C)(C)OC(=O)N1CC(n2cc(-c3cn(-c4ccccc4)c4nc[nH]c(=O)c34)cn2)C1` [Ex-65, 3-[4-(4-oxo-7-phenyl-4,7-dihydro-3H-pyrrolo[2,3-d]pyrimidin-5-yl)-pyrazol-1-yl]-azetidine-1-carboxylic acid tert-butyl ester] it was not above 100 nM; in that of `O=c1[nH]cnc2c1c(-c1cnn(CCO)c1)cn2-c1cccc(F)c1` [Ex-59], not above 100 nM; in that of `COc1cc(-c2cn(-c3ccccc3)c3c(=O)[nH]cnc23)ccn1` [Ex-127], 100 to 1000 nM.
As to `COCCn1cc(-c2cn(-c3ccncc3)c3nc[nH]c(=O)c23)cn1` [Ex-63], the IC50 lay within 100 to 1000 nM.
In the case of `CC(=O)N1CC(n2cc(-c3cn(-c4ccncc4)c4nc[nH]c(=O)c34)cn2)C1` [Ex-12] it was 100 to 1000 nM; in that of `CC(C)(O)C(O)COc1ccc(-c2cn(-c3cccnc3)c3nc[nH]c(=O)c23)cc1` (stereo not shown) [Ex-81], not above 100 nM; in that of `CC(C)(O)COc1ccc(-c2cn(-c3cccnc3)c3nc[nH]c(=O)c23)cc1` [Ex-66, 5-(4-(2-hydroxy-2-methylpropoxy)phenyl)-7-(pyridin-3-yl)-3,7-dihydro-4H-pyrrolo[2,3-d]pyrimidin-4-one], not above 100 nM.
The value for `O=c1[nH]cnc2c(-c3cncnc3)cn(-c3ccccc3)c12` [Ex-115] was more than 1000 nM; that for `O=c1[nH]cnc2c1c(-c1cnn(CCCO)c1)cn2-c1ccccc1` [Ex-113, 5-[1-(3-Hydroxy-propyl)-1H-pyrazol-4-yl]-7-phenyl-3,7-dihydro-pyrrolo[2,3-d]pyrimidin-4-one] was not above 100 nM.
In the case of `CN(CCO)c1ccc(-c2cn(-c3ccccc3)c3nc[nH]c(=O)c23)cn1` [Ex-52] it was not above 100 nM.
In the case of `O=c1[nH]cnc2c1c(-c1ccncc1)cn2-c1ccccc1` [Ex-4], the IC50 was not above 100 nM.
The value for `CC(=O)N1CC(n2cc(-c3cn(-c4ccccc4)c4nc[nH]c(=O)c34)cn2)C1` [Ex-60] was not above 100 nM; that for `Cc1cc(-c2cn(-c3ccccc3)c3c(=O)[nH]cnc23)ccn1` [Ex-130] was 100 to 1000 nM; that for `O=c1[nH]cnc2c1c(-c1ccccc1)cn2-c1cccnc1` [Ex-1, 5-Phenyl-7-pyridin-3-yl-3,7-dihydro-pyrrolo[2,3-d]pyrimidin-4-one] was 100 to 1000 nM.
For the molecule `COCCOc1ccc(-c2cn(-c3ccncc3)c3nc[nH]c(=O)c23)cn1` [Ex-13], the IC50 is not above 100 nM.
In the case of `Cn1cnc2cccc(-c3cn(-c4ccccc4)c4c(=O)[nH]cnc34)c21` [Ex-129] it was more than 1000 nM.
In the case of `N#Cc1cc(-c2cn(-c3ccccc3)c3nc[nH]c(=O)c23)cnc1N1CC[C@@H](O)C1` [Ex-40] it was not above 100 nM; in that of `CC(=O)N1CC(n2cc(-c3cn(-c4ccc(F)cc4)c4nc[nH]c(=O)c34)cn2)C1` [Ex-3, 5-[1-(1-Acetyl-azetidin-3-yl)-1H-pyrazol-4-yl]-7-(4-fluoro-phenyl)-3,7-dihydro-pyrrolo[2,3-d]pyrimidin-4-one], 100 to 1000 nM.
